The text below walks through data of US9045524B2, “Selective caspase inhibitors and uses thereof” (NOVAGENESIS FOUNDATION, priority 2009, dated 2015).

A word on the IC50: it is the concentration that inhibits the measured activity by half.

One assay has as its target Caspase-5 (Homo sapiens (Human), UniProt P51878). In words: Caspase-5 Inhibitor Drug Screening Kit, fluorometric (AFC liberation). It counts as biochemical. Conditions: for IC50: 30-minute incubation at 37° C., approximations of the average values, read-out: Caspase enzymatic activity, IC50 (uM) Caspase 5.
The next assay addresses Caspase-7 (Homo sapiens (Human), UniProt P55210). As to the kind of experiment: Caspase-7 Inhibitor Drug Screening Kit, fluorometric (AFC liberation). Conditions: 30-minute incubation at 37° C.; approximations of the average values; read-out: Caspase enzymatic activity, IC50 (uM) Caspase 7. It counts as biochemical.
For a further assay, the target named is Caspase-3 (Homo sapiens (Human), UniProt P42574). In words: Caspase-3 Inhibitor Drug Screening Kit, fluorometric (AFC liberation). It counts as biochemical. The following applies: for IC50: 30-minute incubation at 37° C., approximations of the average values, read-out: Caspase enzymatic activity, IC50 (uM) Caspase 3.
Caspase-3, sequence (P42574 29-277): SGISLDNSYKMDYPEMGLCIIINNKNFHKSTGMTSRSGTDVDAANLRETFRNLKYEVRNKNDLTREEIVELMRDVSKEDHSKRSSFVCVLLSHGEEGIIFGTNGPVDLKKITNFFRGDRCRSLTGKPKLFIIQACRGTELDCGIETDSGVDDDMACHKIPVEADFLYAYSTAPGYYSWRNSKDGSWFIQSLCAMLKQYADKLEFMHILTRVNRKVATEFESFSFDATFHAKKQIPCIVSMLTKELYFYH
The test system of the next assay is Glo3/7. In words: Glo3/7 assay. It counts as biochemical.
Another assay has as its target Caspase-1 (Homo sapiens (Human), UniProt P29466). As to the kind of experiment: Caspase-1 Inhibitor Drug Screening Kit, fluorometric (AFC liberation). It counts as biochemical. The following applies: for IC50: 30-minute incubation at 37° C., approximations of the average values, read-out: Caspase enzymatic activity, IC50 (uM) Caspase 1.
The target of the next assay is Caspase-9 (Homo sapiens (Human), UniProt P55211). As to the kind of experiment: Caspase-9 Inhibitor Drug Screening Kit, fluorometric (AFC liberation). It counts as biochemical. The following applies: for IC50: 30-minute incubation at 37° C., approximations of the average values, read-out: Caspase enzymatic activity, IC50 (uM) Caspase 9.
Caspase-9, sequence (P55211 whole entry): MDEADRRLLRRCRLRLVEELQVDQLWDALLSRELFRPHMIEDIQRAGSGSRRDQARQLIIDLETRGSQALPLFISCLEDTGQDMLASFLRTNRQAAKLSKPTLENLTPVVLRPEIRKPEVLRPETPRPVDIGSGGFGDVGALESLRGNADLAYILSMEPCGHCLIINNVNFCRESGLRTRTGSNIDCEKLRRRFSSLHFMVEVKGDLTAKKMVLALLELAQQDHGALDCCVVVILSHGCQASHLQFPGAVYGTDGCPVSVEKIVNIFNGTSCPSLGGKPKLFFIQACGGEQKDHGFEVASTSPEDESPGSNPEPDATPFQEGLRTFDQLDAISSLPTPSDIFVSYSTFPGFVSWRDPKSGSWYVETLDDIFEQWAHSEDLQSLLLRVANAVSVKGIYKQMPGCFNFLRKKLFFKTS
Another assay deals with EAE in C57BL/6 mice. In words: Chronic EAE mouse model (MOG35-55 immunization), daily clinical score and body weight. Conditions: for Delay in onset of the disease / Reduction in body weight loss / Reduction in severity of the disease: average overall effects on the EAE model, i.p. It counts as in vivo. Also noted: key to Delay in onset of the disease / Reduction in severity of the disease / Reduction in body weight loss: +++: high level improvement; ++: moderate improvement; +: small improvement; −: no improvement. The text has this: The aim of this study was to verify the effectiveness of compounds in a chronic mouse animal model of EAE. EAE is a good proof-of-principle model of neurodegeneration since it encompasses degeneration or destruction of practically all the cells in the central nervous system, includes most major immunomodulatory components, and is able to maintain normal innate regenerative functions in the animal. This is a standard model (Antel J P et al., J Neurosci Res. 1997, 50: 345-353) used mainly to mimic the course evolution of Multiple Sclerosis (MS) in humans, and is commonly used for studying disease mechanisms and testing potential therapies. EAE is induced by immunization with myelin proteins, leading to development of myelin-specific T cells. These autoreactive T cells traffic into CNS parenchyma where they initiate an inflammatory cascade through recruitment of other cells such as monocytes and neutrophils. Accumulation of immune cells within CNS leads to myelin damage, axonal loss and clinical deficit in affected animals. EAE can be induced in a variety of species and strains of animals [mice, Rat, marmoset monkey, rhesus macaques] using various CNS antigens [Myelin Oligodendrocyte Glycoprotein (MOG), proteolipid protein (PLP) and myelin basic protein (MBP)]. Seven to 8 week old female C57BL/6 mice were purchased from Charles River Laboratories, and housed at MISPRO™ animal facility for one week before experimentation for adaptation to the new environment. All proper animal experimentation and ethics approvals were obtained prior to the start of any experiments. Mice were immunized subcutaneously with 100 μg of MOG35-55 (Sheldon Biotechnology Centre, McGill University) in CFA containing 5 mg/ml of desiccated (killed and dried) Mycobacterium tuberculosis H37Ra (Difco, Inc), at two sites on the back. The mice were then injected with 200 ng of pertussis toxin (List Biological Laboratories, Inc) in PBS intraperitoneally on days 0 and 2 using 25 gauge needles and scored daily using an EAE clinical scale as detailed below (Touil T et al., J Neurol Sci. 2008, 271:191-202; Antel J P et al., 1997, supra; Owens T et al., Curr Pharm Des. 2005, 1:1031-1037).
EAE was clinically assessed throughout the experiments by daily scoring using a scale from 0 to 5 as follows: partial limp tail, 0.5; full limp tail, 1; limp tail and waddling gait, 1.5; paralysis of one hind limb, 2; paralysis of one hind limb and partial paralysis of other hind limb, 2.5; paralysis of both hind limbs, 3; ascending paralysis, 3.5; paralysis of trunk, 4; moribund, 4.5; death, 5. In all the EAE models a body weight loss is always associated with the clinical signs. This body weight loss is associated with the loss of the function and the paralysis of the muscle (atrophy inducing loss of weight). For animals showing a clinical sign of 2 or more, the food and the water were presented inside the cage to facilitate eating and drinking.
At the onset of clinical signs of EAE, the mice were treated with 200 μl of Compound 51, 53, 57, 59, 101, 104, 105, 111 or 123 dissolved in 2.5% Dimethyl sulfoxide (DMSO) in PBS, while placebo groups were treated with 2.5% Dimethyl sulfoxide (DMSO) in PBS only, by intraperitoneal injection at different time of the clinical evolution.

[1] abbreviates: at the tested dose-range (1 to 3333 nM).
Setting [2] is: FIG. 2, i.p. from day 10 to 16 post immunization, versus placebo.
Where [3] appears, read: FIG. 4, administration for 15 days from day 12 post-immunization, versus placebo.

SMILES strings stand for the structures.

Caspase-7, sequence (P55210 whole entry): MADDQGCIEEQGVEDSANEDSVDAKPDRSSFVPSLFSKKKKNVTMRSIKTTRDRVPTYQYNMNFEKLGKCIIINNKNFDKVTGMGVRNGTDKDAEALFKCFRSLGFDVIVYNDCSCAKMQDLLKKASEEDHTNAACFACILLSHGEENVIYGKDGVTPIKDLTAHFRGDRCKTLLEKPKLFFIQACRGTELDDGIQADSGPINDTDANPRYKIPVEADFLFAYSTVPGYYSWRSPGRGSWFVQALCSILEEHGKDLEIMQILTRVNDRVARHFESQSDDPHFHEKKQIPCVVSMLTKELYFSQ
Caspase-1, sequence (P29466 120-404): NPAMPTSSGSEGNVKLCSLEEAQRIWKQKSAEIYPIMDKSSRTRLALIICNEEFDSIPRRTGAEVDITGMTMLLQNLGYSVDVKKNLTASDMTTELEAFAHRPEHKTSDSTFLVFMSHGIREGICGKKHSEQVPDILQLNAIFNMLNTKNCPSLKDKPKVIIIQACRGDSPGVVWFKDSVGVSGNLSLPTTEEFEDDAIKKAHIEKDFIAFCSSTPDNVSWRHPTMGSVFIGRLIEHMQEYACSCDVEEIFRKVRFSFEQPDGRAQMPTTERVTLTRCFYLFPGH
Caspase-5, sequence (P51878 137-434): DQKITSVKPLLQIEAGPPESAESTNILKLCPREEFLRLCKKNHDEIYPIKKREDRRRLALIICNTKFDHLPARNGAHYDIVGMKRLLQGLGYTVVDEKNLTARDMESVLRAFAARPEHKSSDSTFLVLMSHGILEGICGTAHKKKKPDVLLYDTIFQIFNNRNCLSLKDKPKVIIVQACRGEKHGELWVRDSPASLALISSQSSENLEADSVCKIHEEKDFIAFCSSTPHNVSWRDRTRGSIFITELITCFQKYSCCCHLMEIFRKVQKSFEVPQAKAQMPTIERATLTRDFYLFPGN
Experimental for Caspase-1: (§1) The level of inhibition of caspase-1, -3, -5, -7, -9 activity was determined by comparison of the relative fluorescence intensity in samples with or without the compound.
Experimental for Caspase-3: as §1
Experimental for Caspase-5: as §1
Experimental for Caspase-7: as §1
Experimental for Caspase-9: as §1

On to `CC(C)(C)OC(=O)C[C@@H](/C=C/S(=O)(=O)c1ccccc1)NC(=O)OC(C)(C)C` [Compound 36, Boc-Asp(O-tBu)VSphenyl], for which the IC50 is above 3.33 µM at Caspase-5; above 3.33 µM on Caspase-7; above 2 µM on Caspase-3; above 50 µM in the assay on Glo3/7; above 3.33 µM on Caspase-1; above 3.33 µM at Caspase-9.
For the compound `CC(C)[C@H](NC(=O)OCc1ccccc1)C(=O)N[C@H](/C=C/S(C)(=O)=O)CC(=O)O` [Compound 61, z-Val-AspVSmethyl], the IC50 on Caspase-5 is above 3.33 µM; at Caspase-7 it was above 3.33 µM; at Caspase-3 it was above 3.33 µM; in the assay with Glo3/7, 50 µM; at Caspase-1, above 3.33 µM; at Caspase-9, above 3.33 µM. Also, the “activity against caspase-3” value on Caspase-3 is listed as “abolished completely the activity”.
Take `CC(C)[C@H](NC(=O)[C@H](Cc1ccc2ccccc2n1)NC(=O)[C@H](CC(=O)O)NC(=O)OCc1ccccc1)C(=O)N[C@H](/C=C/S(=O)(=O)c1ccccc1)CC(=O)O` [Compound 63, Z-Asp-Ala(2′-quinolyl)-Val-Aspphenyl vinyl sulfone]: the IC50 at Caspase-5 was above 3.33 µM; at Caspase-7, 1.8 µM; on Caspase-3, 0.04 µM; with Glo3/7 it was 0.9 µM; at Caspase-1, above 3.33 µM; at Caspase-9, above 3.33 µM. Also, the “inhibitory activity for caspase-5” value at Caspase-5 (setting [1]) is “No significant inhibitory activity”. In addition, the “selectivity of Caspase-3 over Caspase-7 based on IC50 values” on Caspase-3 (IC50 caspase-7 versus caspase-3) is given as around 50 fold. Moreover, the “inhibitory activity for caspase-1” value at Caspase-1 (setting [1]) is recorded as “No significant inhibitory activity”. Also, on Caspase-9 (setting [1]), the “inhibitory activity for caspase-9” value is “No significant inhibitory activity”.
As to `CC(C)[C@H](NC(=O)[C@H](Cc1ccc(OC(C)(C)C)cc1)NC(=O)OCc1ccccc1)C(=O)N[C@@H](C)C(=O)N[C@H](/C=C/S(=O)(=O)c1ccccc1)CC(=O)OC(C)(C)C` [Compound 95, Z-Tyr(OtBu)- Val-Ala-Asp (OtBu) phenyl vinyl sulfone], in the assay with EAE in C57BL/6 mice (FIG. 3, i.p. from day 14 to 19 post immunization, versus placebo), the “effects on the clinical course of EAE” value is “ameliorating effects”.
For the compound `COC(=O)C[C@@H](/C=C(\Cl)S(C)(=O)=O)NC(=O)[C@@H](NC(=O)[C@@H](NC(=O)[C@H](CC(=O)OC)NC(=O)OCc1ccccc1)c1ccccc1)C(C)C` [Compound 104, Z-Asp(β-methyl)-phenylglycine-Val-Asp(β-methyl)achlorovinyl Methylsulfone], in the assay with EAE in C57BL/6 mice (setting [2]), the Disease onset result is on record as “delayed”; the “Loss of body weight” value is “did not show and significant difference compared to placebo”; the “severity of the disease” value is on record as “reduced significantly at the early stage of the disease”. In addition, in the assay on EAE in C57BL/6 mice, the “Delay in onset of the disease” value was “++”, the “Reduction in body weight loss” value is on record as “−” and the “Reduction in severity of the disease” value is given as “+”.
Regarding `COC(=O)C[C@@H](/C=C(\Cl)S(C)(=O)=O)NC(=O)[C@@H](NC(=O)[C@@H](NC(=O)[C@H](CC(=O)OC)NC(=O)OCc1ccccc1)C1Cc2ccccc2C1)C(C)C` [Compound 105, Z-Asp(β-methyl)-indanylglycine-Val-Asp(β-methyl)achlorovinyl Methylsulfone], in the assay on EAE in C57BL/6 mice (setting [2]), the Disease onset entry is listed as “delayed”, the “Loss of body weight” value is listed as “less than placebo” and the “severity of the disease” value is “reduced significantly at the early stage of the disease”. Besides, in the assay with EAE in C57BL/6 mice, the “Delay in onset of the disease” value is on record as “++”, the “Reduction in body weight loss” value is “++” and the “Reduction in severity of the disease” value is on record as “+”.
For `COC(=O)CC[C@H](NC(=O)[C@H](CC(=O)OC)NC(=O)OCc1ccccc1)C(=O)N[C@H](C(=O)N[C@@H](CC(=O)OC)C(=O)CF)C(C)C` [zDEVD-FMK, z-D(OMe)E(OMe)VD(OMe)FMK, reference compound], in the assay with EAE in C57BL/6 mice (setting [3]), the “onset of the disease” value is recorded as “delayed the onset” and the “severity of the disease” value is recorded as “reduced the severity of the disease”.
